Assay [1] addresses T1, Serine/threonine-protein kinase Chk1 (Homo sapiens) (UniProt O14757).
T1 sequence (whole entry): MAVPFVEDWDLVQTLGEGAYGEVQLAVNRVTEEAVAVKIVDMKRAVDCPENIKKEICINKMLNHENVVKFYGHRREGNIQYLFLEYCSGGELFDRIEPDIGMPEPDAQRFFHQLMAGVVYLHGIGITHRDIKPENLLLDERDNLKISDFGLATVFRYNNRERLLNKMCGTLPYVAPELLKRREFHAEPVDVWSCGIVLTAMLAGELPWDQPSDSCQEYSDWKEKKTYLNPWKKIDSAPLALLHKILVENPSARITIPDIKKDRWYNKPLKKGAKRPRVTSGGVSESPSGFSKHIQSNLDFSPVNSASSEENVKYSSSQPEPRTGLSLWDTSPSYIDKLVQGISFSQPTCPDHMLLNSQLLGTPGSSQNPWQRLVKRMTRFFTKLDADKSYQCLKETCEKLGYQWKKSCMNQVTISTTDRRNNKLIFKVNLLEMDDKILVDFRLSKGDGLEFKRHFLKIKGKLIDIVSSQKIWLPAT
Kind of assay: Inhibition of human full length CHK1 expressed in baculovirus assessed as substrate phosphorylation using fluorescence-labelled peptides as substrate at 8 uM after 90 mins by microfluidic peptide phosphorylation assay.

Assay [2] concerns Tyrosine-protein kinase ABL1 (Homo sapiens), P00519 [H396P]. The assay is described as follows: Inhibition of human truncated ABL H396P mutant expressed in baculovirus assessed as substrate phosphorylation using fluorescence-labelled peptides as substrate at 0.1 uM after 90 mins by microfluidic peptide phosphorylation assay.
The target of assay [3] is Glycogen synthase kinase-3 beta (Homo sapiens) (UniProt P49841). As to conditions: 0.1 uM.
Glycogen synthase kinase-3 beta (Homo sapiens), sequence (P49841 whole entry, looked up): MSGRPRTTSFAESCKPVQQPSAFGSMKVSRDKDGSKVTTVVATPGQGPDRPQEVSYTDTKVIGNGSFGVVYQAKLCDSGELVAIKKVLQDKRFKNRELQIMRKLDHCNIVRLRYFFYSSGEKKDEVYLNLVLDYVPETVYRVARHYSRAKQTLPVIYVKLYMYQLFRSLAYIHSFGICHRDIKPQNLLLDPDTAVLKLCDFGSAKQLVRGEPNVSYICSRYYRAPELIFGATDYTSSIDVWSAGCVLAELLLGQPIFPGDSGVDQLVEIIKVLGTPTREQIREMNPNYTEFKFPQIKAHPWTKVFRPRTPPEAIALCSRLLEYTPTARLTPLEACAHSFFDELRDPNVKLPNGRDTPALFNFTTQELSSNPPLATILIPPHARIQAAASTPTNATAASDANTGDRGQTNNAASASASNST
Description: Inhibition of human full length GSK-3 beta expressed in baculovirus assessed as substrate phosphorylation using fluorescence-labelled peptides as substrate at 0.1 uM after 90 mins by microfluidic peptide phosphorylation assay
Assay [4] addresses T2, Serine/threonine-protein kinase Nek2 (Homo sapiens) (UniProt P51955).
T2 sequence (whole entry): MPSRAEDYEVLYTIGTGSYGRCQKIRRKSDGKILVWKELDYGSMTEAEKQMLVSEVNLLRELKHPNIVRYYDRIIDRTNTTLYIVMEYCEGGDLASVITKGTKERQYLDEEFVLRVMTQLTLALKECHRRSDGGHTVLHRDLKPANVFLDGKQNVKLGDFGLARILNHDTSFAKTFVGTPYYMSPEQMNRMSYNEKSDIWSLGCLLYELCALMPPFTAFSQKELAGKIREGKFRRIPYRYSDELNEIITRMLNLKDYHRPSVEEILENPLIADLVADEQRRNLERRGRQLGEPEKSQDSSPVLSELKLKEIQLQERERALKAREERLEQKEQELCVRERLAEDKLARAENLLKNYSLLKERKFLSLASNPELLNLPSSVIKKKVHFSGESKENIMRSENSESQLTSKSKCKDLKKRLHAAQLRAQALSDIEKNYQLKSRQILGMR
The assay is described as follows: Inhibition of human full length NEK2 expressed in baculovirus assessed as substrate phosphorylation using fluorescence-labelled peptides as substrate at 0.06 uM after 90 mins by microfluidic peptide phosphorylation assay.

Assay [5] has as its target Fibroblast growth factor receptor 1 (Homo sapiens) (UniProt P11362). The assay is described as follows: Inhibition of human FGFR1 catalytic domain expressed in baculovirus assessed as substrate phosphorylation using fluorescence-labelled peptides as substrate at 0.2 uM after 90 mins by microfluidic peptide phosphorylation assay.
The species entered for the next assay is Homo sapiens. Kind of assay: Inhibition of human full length PKA expressed in baculovirus assessed as substrate phosphorylation using fluorescence-labelled peptides as substrate at 0.2 uM after 90 mins by microfluidic peptide phosphorylation assay.
Assay [6] has as its target Casein kinase I isoform alpha (Homo sapiens) (UniProt P48729). The assay is described as follows: Inhibition of human full length CSNK1A1 expressed in baculovirus assessed as substrate phosphorylation using fluorescence-labelled peptides as substrate at 70 uM after 90 mins by microfluidic peptide phosphorylation assay.
Assay [7] concerns the target T3, Mitogen-activated protein kinase 12 (Homo sapiens) (UniProt P53778).
T3 sequence (whole entry): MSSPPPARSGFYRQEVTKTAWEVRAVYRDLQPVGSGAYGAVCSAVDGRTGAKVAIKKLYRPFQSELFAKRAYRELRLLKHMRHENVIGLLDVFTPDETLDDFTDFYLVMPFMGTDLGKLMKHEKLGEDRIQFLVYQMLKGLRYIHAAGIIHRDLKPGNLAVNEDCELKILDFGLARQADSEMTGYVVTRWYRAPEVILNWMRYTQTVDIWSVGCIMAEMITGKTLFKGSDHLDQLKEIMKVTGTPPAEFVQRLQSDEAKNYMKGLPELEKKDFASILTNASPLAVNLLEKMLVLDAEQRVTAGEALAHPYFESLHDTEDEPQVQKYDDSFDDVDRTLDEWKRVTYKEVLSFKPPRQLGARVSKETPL
The assay is described as follows: Inhibition of human full length p38 gamma expressed in Escherichia coli cell assessed as substrate phosphorylation using fluorescence-labelled peptides as substrate at 70 uM after 90 mins by microfluidic peptide phosphorylation assay.

In assay [8] the target is Ribosomal protein S6 kinase alpha-1 (Homo sapiens) (UniProt Q15418). The assay is described as follows: Inhibition of human full length RSK1 expressed in baculovirus assessed as substrate phosphorylation using fluorescence-labelled peptides as substrate at 95 uM after 90 mins by microfluidic peptide phosphorylation assay.
Ribosomal protein S6 kinase alpha-1 (Homo sapiens), sequence (Q15418 whole entry): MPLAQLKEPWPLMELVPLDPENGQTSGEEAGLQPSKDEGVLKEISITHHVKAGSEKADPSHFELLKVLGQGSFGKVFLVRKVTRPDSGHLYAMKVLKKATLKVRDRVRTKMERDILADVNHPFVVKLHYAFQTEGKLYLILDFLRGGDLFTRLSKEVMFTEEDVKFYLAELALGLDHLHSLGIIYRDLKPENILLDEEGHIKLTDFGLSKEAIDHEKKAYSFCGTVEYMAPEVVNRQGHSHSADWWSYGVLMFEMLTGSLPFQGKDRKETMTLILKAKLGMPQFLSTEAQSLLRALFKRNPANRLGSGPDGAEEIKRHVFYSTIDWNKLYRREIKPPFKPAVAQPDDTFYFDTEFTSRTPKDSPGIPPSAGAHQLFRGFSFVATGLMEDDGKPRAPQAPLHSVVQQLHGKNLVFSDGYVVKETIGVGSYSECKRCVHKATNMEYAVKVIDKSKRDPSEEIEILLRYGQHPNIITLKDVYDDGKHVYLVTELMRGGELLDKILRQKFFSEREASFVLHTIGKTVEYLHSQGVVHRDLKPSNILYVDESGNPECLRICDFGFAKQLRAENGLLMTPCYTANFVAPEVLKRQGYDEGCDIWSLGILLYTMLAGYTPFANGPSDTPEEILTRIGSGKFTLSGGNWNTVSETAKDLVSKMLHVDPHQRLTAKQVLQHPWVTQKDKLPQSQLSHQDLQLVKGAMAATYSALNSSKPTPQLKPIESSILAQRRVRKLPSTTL
Assay [9] concerns the target T4, Serine/threonine-protein kinase BRSK1 (Homo sapiens) (UniProt Q8TDC3).
T4 sequence (whole entry): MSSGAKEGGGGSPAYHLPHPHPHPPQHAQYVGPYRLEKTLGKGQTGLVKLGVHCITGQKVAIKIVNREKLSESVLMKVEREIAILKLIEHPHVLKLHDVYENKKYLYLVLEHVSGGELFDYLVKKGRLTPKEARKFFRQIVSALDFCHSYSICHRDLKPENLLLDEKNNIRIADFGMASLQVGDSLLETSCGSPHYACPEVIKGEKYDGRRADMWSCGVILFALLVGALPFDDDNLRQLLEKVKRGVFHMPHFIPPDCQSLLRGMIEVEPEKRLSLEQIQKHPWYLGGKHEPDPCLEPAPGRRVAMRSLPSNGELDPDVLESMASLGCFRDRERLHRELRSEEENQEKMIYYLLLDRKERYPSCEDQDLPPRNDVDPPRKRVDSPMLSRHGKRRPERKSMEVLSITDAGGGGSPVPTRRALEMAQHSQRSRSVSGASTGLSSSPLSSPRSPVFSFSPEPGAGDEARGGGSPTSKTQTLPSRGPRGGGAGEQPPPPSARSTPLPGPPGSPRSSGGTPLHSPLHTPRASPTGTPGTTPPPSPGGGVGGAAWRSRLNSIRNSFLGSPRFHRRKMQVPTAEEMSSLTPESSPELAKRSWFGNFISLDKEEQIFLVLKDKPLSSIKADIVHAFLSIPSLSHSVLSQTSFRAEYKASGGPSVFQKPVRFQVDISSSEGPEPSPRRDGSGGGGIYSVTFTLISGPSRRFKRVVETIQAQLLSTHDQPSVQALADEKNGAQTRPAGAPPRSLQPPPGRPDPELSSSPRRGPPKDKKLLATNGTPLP
The following applies: 1000 uM.
Description: Inhibition of human full length BRSK1 expressed in baculovirus assessed as substrate phosphorylation using fluorescence-labelled peptides as substrate at 1000 uM after 90 mins by microfluidic peptide phosphorylation assay

Assay [10] concerns the target Proto-oncogene tyrosine-protein kinase Src (Homo sapiens) (UniProt P12931). Kind of assay: Inhibition of human full length SRC expressed in baculovirus assessed as substrate phosphorylation using fluorescence-labelled peptides as substrate at […] after 90 mins by microfluidic peptide phosphorylation assay.

Experimental findings from ChEMBL document CHEMBL3132769, “Fragment growing to retain or alter the selectivity of anchored kinase hinge-binding fragments” (Medchemcomm, 2014) are described below.

Fibroblast growth factor receptor 1 (Homo sapiens), sequence (P11362 22-822 limits assumed): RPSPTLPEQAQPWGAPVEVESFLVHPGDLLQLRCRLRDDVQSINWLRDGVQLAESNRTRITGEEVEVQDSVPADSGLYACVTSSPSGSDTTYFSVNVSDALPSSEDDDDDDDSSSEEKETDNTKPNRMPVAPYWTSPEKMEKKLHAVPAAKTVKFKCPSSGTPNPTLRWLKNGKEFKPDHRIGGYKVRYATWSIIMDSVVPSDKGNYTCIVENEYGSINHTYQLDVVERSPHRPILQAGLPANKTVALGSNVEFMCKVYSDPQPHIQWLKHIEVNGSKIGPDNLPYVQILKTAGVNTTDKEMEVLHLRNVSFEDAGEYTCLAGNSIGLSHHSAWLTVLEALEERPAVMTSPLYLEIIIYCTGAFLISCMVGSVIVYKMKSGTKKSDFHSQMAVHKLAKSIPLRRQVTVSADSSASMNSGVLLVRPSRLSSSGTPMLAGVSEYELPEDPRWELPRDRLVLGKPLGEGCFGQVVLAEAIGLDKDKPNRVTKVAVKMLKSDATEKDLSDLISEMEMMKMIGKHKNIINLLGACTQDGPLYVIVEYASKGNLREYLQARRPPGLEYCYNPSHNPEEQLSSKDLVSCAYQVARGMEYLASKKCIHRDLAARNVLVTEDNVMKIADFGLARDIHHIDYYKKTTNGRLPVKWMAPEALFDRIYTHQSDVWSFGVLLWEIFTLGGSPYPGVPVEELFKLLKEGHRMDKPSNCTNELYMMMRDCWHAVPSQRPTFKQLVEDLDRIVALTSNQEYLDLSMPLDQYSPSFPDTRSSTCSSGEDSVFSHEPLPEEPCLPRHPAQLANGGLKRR
Casein kinase I isoform alpha (Homo sapiens), sequence (P48729 2-337 limits assumed): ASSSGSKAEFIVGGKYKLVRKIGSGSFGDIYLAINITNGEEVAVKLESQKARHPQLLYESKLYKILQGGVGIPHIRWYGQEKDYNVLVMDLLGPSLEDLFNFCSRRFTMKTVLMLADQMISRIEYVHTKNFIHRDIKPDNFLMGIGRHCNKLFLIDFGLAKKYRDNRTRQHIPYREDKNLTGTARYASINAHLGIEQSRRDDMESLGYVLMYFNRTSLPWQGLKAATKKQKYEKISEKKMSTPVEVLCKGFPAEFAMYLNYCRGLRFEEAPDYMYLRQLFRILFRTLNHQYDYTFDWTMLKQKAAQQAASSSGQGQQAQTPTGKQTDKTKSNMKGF
Proto-oncogene tyrosine-protein kinase Src (Homo sapiens), sequence (P12931 2-536 limits assumed): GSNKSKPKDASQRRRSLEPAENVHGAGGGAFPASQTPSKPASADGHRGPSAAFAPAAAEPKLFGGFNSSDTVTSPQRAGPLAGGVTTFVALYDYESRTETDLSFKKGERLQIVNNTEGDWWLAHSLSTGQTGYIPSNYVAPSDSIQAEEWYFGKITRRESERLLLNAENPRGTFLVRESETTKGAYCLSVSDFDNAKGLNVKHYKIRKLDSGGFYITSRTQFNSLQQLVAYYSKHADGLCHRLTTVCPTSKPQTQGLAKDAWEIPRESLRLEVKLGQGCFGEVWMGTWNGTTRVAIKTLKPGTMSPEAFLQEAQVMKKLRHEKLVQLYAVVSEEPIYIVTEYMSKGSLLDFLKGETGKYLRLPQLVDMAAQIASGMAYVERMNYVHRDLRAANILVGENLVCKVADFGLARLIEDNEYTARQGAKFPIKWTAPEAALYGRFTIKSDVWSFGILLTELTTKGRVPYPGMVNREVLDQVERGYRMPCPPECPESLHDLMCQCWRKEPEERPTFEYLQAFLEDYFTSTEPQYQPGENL

Regarding `NCC1CCN(c2ncnc3[nH]ccc23)CC1`, the inhibition in assay [1] came to 0%.

On to `C[C@H](CN(C)C)Oc1nc(Nc2cc3cccc(Cl)c3cn2)cnc1C#N`, for which the inhibition turned out to be 1.5% in [2] and 0% in assay [3].

With `NC1(Cc2ccc(Cl)cc2)CCN(c2ncnc3[nH]ccc23)CC1`, in assay [4], the inhibition came to 0%.

As for `Clc1ccc(C2(c3ccc(-c4ncnc5[nH]cnc45)cc3)CCNCC2)cc1`, the inhibition came out at 13% in assay [5] and 100% in the assay filed under Homo sapiens.

With `CNCc1ccc(-c2ncnc3[nH]cnc23)cc1`, the inhibition in [6] is 45.5%; in assay [7], 15%.

For `NCCc1ccc(-c2ncnc3[nH]cnc23)cc1`, in assay [8], the inhibition came out at 83.5%.

On to `c1cnc2[nH]ccc2c1`, for which the inhibition in [9] was 22%.

For the compound `COC(=O)c1cnc(Nc2cnc(C#N)cn2)cc1NCC1CCNCC1`, the inhibition in assay [10] was 7.5%.

A word on the inhibition: it is the relative decrease from the control value, in per cent.
